The data set can be described thus: gradient 5% acetonitrile 3 min, to 50% in 2 min, to 85% in 15 min, held 3 min, 100 µL/min. The note with it: column: Zorbax Extend-C18 2.1 x 50 mm; eluents: water / acetonitrile, 0.1% formic acid. The essentials:
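Over 3 months, pure standards in mixtures of ~100 molecules were run by HPLC coupled to a quadrupole time-of-flight mass spectrometer in positive and negative ionization mode. The column was a Zorbax Extend-C18 (2.1 × 50 mm, 1.8 μm) at 100 μL/min, eluted with water and acetonitrile each holding 0.1% formic acid, with 40 μL dead and 900 μL dwell volumes. Retention time was determined from adduct peaks chosen by software and checked manually.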
In turn, `O=C(Cn1nc2c(N3CCSCC3)nccn2c1=O)Nc1ccc2c(c1)OCCO2` came in with an RP-LC retention time of 737 s.
In the case of `O=C(NCC1CCN(C(=O)Oc2ccccc2)CC1)C(=O)Nc1ccon1` it was 741 s; in that of `Cc1cc(N2C(=O)CCS2(=O)=O)cc(C)c1S(=O)(=O)N1CCC(C(N)=O)CC1`, 648 s; in that of `O=C(O)c1ccccc1C(=O)Nc1cccc([N+](=O)[O-])c1`, 776 s.
On to `O=C(Nc1cccc(OC(F)(F)F)c1)C1(CCO)CCN(c2ncccn2)C1` (centres undefined), for which the RP-LC retention time is 661 s.
The figure for `CCOC(=O)CNC(=O)NCC(c1cccnc1)c1c[nH]c2ccccc12` (centres undefined) is 598 s.
Compound `COc1ccc(CNC(=O)N2CCN(Cc3nc4cc(Cl)ccc4o3)CC2)cc1` registered an RP-LC retention time of 667 s.
In turn, `Cc1ccc(-c2nc(-c3ccc4ncn(C(C)C)c4c3)no2)cc1` returned an RP-LC retention time of 857 s.
`Nc1cc(C2CCN(C(=O)/C=C/c3ccccc3)CC2)no1` returned an RP-LC retention time of 724 s.
Turning to `COc1ccc(S(=O)(=O)N2CCN(c3cc(C)nc(NC4CCCCC4)n3)CC2)cc1`, the RP-LC retention time was 770 s.
In the case of `Cc1nc2cccnc2n1C1CCN(C(=O)Nc2cccc(Br)c2)CC1` it was 673 s.
Take `O=C(NCc1nnnn1C1CCCCC1)c1ccc(Br)o1`: the RP-LC retention time amounted to 738 s.
In the case of `CCn1nccc1-c1cccc(-c2noc(-c3c(F)cccc3F)n2)c1` it was 1270 s; in that of `CC(C(O)c1ccc(O)cc1)N1CCC(Cc2ccccc2)CC1` (centres undefined), 718 s.
As to `CSc1ccc(CNC(=O)c2ccc3ccnc(N4CCN(C(=O)c5ccco5)CC4)c3c2)cc1`, the RP-LC retention time was 732 s.
The figure for `Cc1ccc(Cc2nnc(NC(=O)c3cc(C)n(C(C)C)n3)o2)cc1` is 802 s; for `CN(C)C[C@@H]1CN(c2ncccn2)C[C@H]1NC(=O)NCc1ccco1` it is 550 s.
`CN(C)c1ncncc1N1CCC(C(=O)NCc2ccc3c(c2)OCO3)CC1` came in with an RP-LC retention time of 587 s.
Compound `COc1ccc(-c2noc(Cc3nnc(-c4cccc(Cl)c4)o3)n2)cc1F` had an RP-LC retention time of 1060 s.
Turning to `CN1CCC(OC2CCN(C(=O)c3ccc(Cl)s3)CC2)CC1`, the RP-LC retention time was found to be 609 s.
`CCOc1cc(=O)n2c(c1C(=O)Nc1cc(OC)cc(OC)c1)CCCC2` came in with an RP-LC retention time of 718 s.
`CC(C)(NC(=O)c1cnccn1)c1nc2c(c(C(N)=O)n1)OCO2`: the RP-LC retention time was 598 s.
In the case of `CC(=O)c1ccc(NC(=O)N2C[C@@H]3C[C@H]2C[C@@H]3NC(=O)c2ccccc2)cc1` it was 681 s; in that of `Cc1ccc(NC(=O)Cn2nc3n(c2=O)CCCC3)cc1`, 640 s.
In the case of `O=C(NC1CC1)c1ccccc1OCC1CCN(C(=O)C2CCCO2)CC1` (centres undefined) it was 685 s; in that of `Cc1[nH]c2ccc(F)cc2c1CCNS(=O)(=O)c1ccc(F)cc1`, 865 s.
In the case of `CCn1ccc(C(=O)Nc2ccc(N3CCN(c4ccccc4)C3=O)nc2)n1` it was 786 s.
The compound `Cc1ccc(-c2nc(C3CC(=O)N(c4ccc(F)c(Cl)c4)C3)no2)cc1C` (centres undefined) yielded an RP-LC retention time of 1090 s.
The figure for `O=C1C(c2cccnc2)N(Cc2cccs2)C(=O)CN1c1ccccc1` (centres undefined) is 661 s; for `CCc1nc2ccccc2c(=O)n1Cc1noc(-c2ccc(C#N)cc2)n1` it is 919 s.
The compound `Cc1ccc(-c2cn3c(CC(=O)N4CCc5ccccc5C4)csc3n2)cc1C` yielded an RP-LC retention time of 879 s.
`Cc1ccc(CNC(=O)C2(C)CN(S(C)(=O)=O)CC(=O)N2Cc2ccc(Cl)cc2)cc1` (centres undefined): the RP-LC retention time turned out to be 906 s.
`O=C(CCc1csc(NC(=O)c2ccccc2)n1)Nc1nc2ccc(Cl)cc2s1` returned an RP-LC retention time of 970 s.
The figure for `O=C(Cc1ccccc1)Nc1c(C(=O)N2CCN(c3ccccn3)CC2)oc2ccccc12` is 673 s; for `CCCc1ccc(S(=O)(=O)N2CCC(F)(c3nc(CC(C)C)no3)CC2)cc1` it is 1330 s.
In the case of `CN1CCOc2ccc(NC(=O)C3CCN(S(C)(=O)=O)CC3)cc2C1=O` it was 590 s; in that of `COc1ccc(N2CCN(C(=O)C3CCN(C(=O)C4Sc5ccccc5NC4=O)CC3)CC2)cc1` (centres undefined), 705 s; in that of `CC(C)(C)c1csc(-c2csc(S(=O)(=O)Nc3ccc(Cl)cc3F)c2)n1`, 1300 s.
Take `Cn1nc(N2CCCC(NS(=O)(=O)c3cccc4cccnc34)C2)ccc1=O` (centres undefined): the RP-LC retention time was found to be 698 s.
In the case of `Cc1ccc(C)c(CSc2nnc3c(S(=O)(=O)N4CCCC4)cccn23)c1` it was 893 s; in that of `CC(C)(C)n1nnnc1C1CC2(CCOCC2)C(=O)N1Cc1ccccc1` (centres undefined), 769 s; in that of `COc1ccc(OC)c(S(=O)(=O)N2CCOCCNC(=O)[C@H]3CCCC[C@H]32)c1`, 772 s.
`COc1ccc(-c2ncccc2CNS(=O)(=O)Cc2cc(F)cc(F)c2)cc1` showed an RP-LC retention time of 694 s.
The figure for `COc1ccc(Cn2cc(S(=O)(=O)N3CCCC3)ccc2=O)cc1` is 796 s.
Take `COc1ccc(Br)c(C(=O)N2CC(c3nc(-c4cccc(Cl)c4)no3)C2)c1`: the RP-LC retention time worked out at 1000 s.
The figure for `CCCn1cc(CCNC(=O)Nc2cc(F)ccc2F)c2cccnc21` is 849 s.
In the case of `Cc1ccc2c(Nc3ccc(C(C)C)cc3)c(C(=O)N3CCC(C)CC3)cnc2n1` it was 737 s; in that of `COc1ccc(-c2cn3c(CC(=O)Nc4ccc(C(F)(F)F)cc4)csc3n2)cc1`, 869 s.
As for `O=C(NCc1n[nH]c(=O)c2ccccc12)C(=O)N1CCCCC1`, the RP-LC retention time amounted to 603 s.
In the case of `CC1CCN(S(=O)(=O)c2ccc3c(c2)CCCC(=O)N3CC(=O)N2CCc3ccccc32)CC1` it was 1030 s; in that of `COc1cccc(N2CCN(C(=O)c3cn(-c4ccc(NC(=O)C5CC5)cn4)cn3)CC2)c1`, 743 s; in that of `CCCN1CCn2cc(S(=O)(=O)Nc3ccccc3F)cc2C1=O`, 718 s.
Turning to `CC(NC(=O)c1ccc(-c2ccnc(N3CCCC3)n2)cc1)c1cccnc1` (centres undefined), the RP-LC retention time was found to be 586 s.
The figure for `Cc1ccc(NS(=O)(=O)c2cc3n(c2)CCN(CC(C)C)C3=O)cc1C` is 846 s; for `Cc1nc(-c2cccnc2)n2c(=O)n(CCc3ccccc3)nc2c1C` it is 786 s.
Turning to `CCc1nc2cc(N3CCC(C(=O)NCc4cc(F)ccc4F)CC3)cnc2nc1CC`, the RP-LC retention time came to 838 s.
The figure for `CCN1c2cc(C(=O)NCc3ccc(SC)cc3)ccc2C(=O)N2CCCCC21` (centres undefined) is 856 s; for `COc1ccc(N2CC(c3noc(-c4ccc(C)cc4C)n3)CC2=O)cc1OC` (centres undefined) it is 1000 s; for `Cc1noc(C)c1CC(=O)NCc1nnc2n1CCCC2` it is 559 s.

The record behind these values is the METLIN SMRT retention time set (Domingo-Almenara et al. 2019).
